In US4284635A, “Analgesic 1,2,4,5-tetra-alkyl-4-arylpiperidines” (Eli Lilly and Company, priority 1978, dated 1981):

Assay: rat-tail jerk assay (rats subjected to a heat sensation)
Type: in vivo
Settings: subcutaneous
Description: The analgesic activity of a number of compounds provided by this invention has been determined in the standard rat-tail jerk assay and the mouse writhing assay. The results in the mouse writhing assay are presented as the effective dose in mg./kg. of the tested compound required to inhibit induced writhing in the test animals by fifty percent (ED50). Results are presented in Column II for both subcutaneous (S.C.) and oral (p.o.) administration of the test compound recited in Column I.
Column III presents the effects of the claimed compounds on rats subjected to a heat sensation. The compounds recited in column I were administered subcutaneously to the test animals. The test results are reported as the minimum effective dose (MED) of compound in mg./kg. needed to delay response to the pain stimulus by one second compared to control animals.

SMILES	Rat Tail Jerk MED 1 sec. (minimum effective dose needed to delay response to the pain stimulus by one second compared to control animals) [mg/kg]
CC1CC(C)(c2cccc(O)c2)C(C)CN1C (centres unmarked) [1,2,4,5-Tetramethyl-4-(3-hydroxyphenyl)piperidine]	1
COc1cccc(C2(C)CC(C)N(C)CC2C)c1 (centres unmarked) [1,2,4,5-Tetramethyl-4-(3-methoxyphenyl)piperidine]	10
CCCC1(c2cccc(OC)c2)CC(C)N(C)CC1C (centres unmarked) [1,2,5-Trimethyl-4-n-propyl-4-(3-methoxyphenyl)piperidine]	2
CCCC1(c2cccc(O)c2)CC(C)N(C)CC1C (centres unmarked) [1,2,5-trimethyl-4-n-propyl-4-(3-hydroxyphenyl)piperidine]	20
CCOC(=O)C1(c2ccccc2)CCN(C)CC1 [Meperidine, reference compound]	3.0
